From ChEMBL document CHEMBL3046897, “Synthesis of 3-{4-[4-dimethylamino-6-(4-methyl-2-oxo-2H-chromen-7-yloxy)-[1,3,5]triazin-2-ylamino]-phenyl}-2-phenyl-5-(4-pyridin-2-yl-piperazin-1-ylmethyl)-thiazolidin-4-one and their biological evaluation” (2012)
≈ marks a conversion by molar mass, not a printed value.

How the values were obtained:
Format in all cases: functional
Shigella flexneri [1] = assay: Antibacterial activity against Shigella flexneri after 24 hr by agar streak dilution method
Proteus vulgaris [2] = assay: Antibacterial activity against Proteus vulgaris after 24 hr by agar streak dilution method
Salmonella typhi [3] = assay: Antibacterial activity against Salmonella enterica subsp. enterica serovar Typhi after 24 hr by agar streak dilution method
Klebsiella pneumoniae [4] = assay: Antibacterial activity against Klebsiella pneumoniae after 24 hr by agar streak dilution method
Candida albicans [5] = assay: Antifungal activity against Candida albicans at 100 ug/disk after 48 hr by paper disk diffusion method; conditions: read-out: IZ
Aspergillus clavatus [6] = assay: Antifungal activity against Aspergillus clavatus at 100 ug/disc after 48 hr by paper disk diffusion method; conditions: read-out: IZ
Aspergillus fumigatus [7] = assay: Antifungal activity against Aspergillus fumigatus at 100 ug/disc after 48 hr by paper disk diffusion method; conditions: read-out: IZ
Aspergillus niger [8] = assay: Antifungal activity against Aspergillus niger at 100 ug/disk after 48 hr by paper disk diffusion method; conditions: read-out: IZ
Candida albicans [9] = assay: Antifungal activity against Candida albicans after 48 hr by agar streak dilution method
Aspergillus clavatus [10] = assay: Antifungal activity against Aspergillus clavatus after 48 hr by agar streak dilution method
Aspergillus niger [11] = assay: Antifungal activity against Aspergillus niger after 48 hr by agar streak dilution method
Pseudomonas aeruginosa [12] = assay: Antibacterial activity against Pseudomonas aeruginosa after 24 hr by agar streak dilution method
Escherichia coli [13] = assay: Antibacterial activity against Escherichia coli after 24 hr by agar streak dilution method
Shigella flexneri [14] = assay: Antibacterial activity against Shigella flexneri at 100 ug/disc after 24 hr by paper disk diffusion method; conditions: read-out: IZ
Proteus vulgaris [15] = assay: Antibacterial activity against Proteus vulgaris at 100 ug/disk after 24 hr by paper disk diffusion method; conditions: read-out: IZ
Salmonella typhi [16] = assay: Antibacterial activity against Salmonella enterica subsp. enterica serovar Typhi at 100 ug/disk after 24 hr by paper disk diffusion method; conditions: read-out: IZ
Klebsiella pneumoniae [17] = assay: Antibacterial activity against Klebsiella pneumoniae at 100 ug/disk after 24 hr by paper disk diffusion method; conditions: read-out: IZ
Pseudomonas aeruginosa [18] = assay: Antibacterial activity against Pseudomonas aeruginosa at 100 ug/disk after 24 hr by paper disk diffusion method; conditions: read-out: IZ
Escherichia coli [19] = assay: Antibacterial activity against Escherichia coli at 100 ug/disk after 24 hr by paper disk diffusion method; conditions: read-out: IZ
Bacillus subtilis [20] = assay: Antibacterial activity against Bacillus subtilis after 24 hr by agar streak dilution method
Staphylococcus aureus [21] = assay: Antibacterial activity against Staphylococcus aureus after 24 hr by agar streak dilution method
Bacillus subtilis [22] = assay: Antibacterial activity against Bacillus subtilis at 100 ug/disk after 24 hr by paper disk diffusion method; conditions: read-out: IZ
Staphylococcus aureus [23] = assay: Antibacterial activity against Staphylococcus aureus at 100 ug/disc after 24 hr by paper disk diffusion method; conditions: read-out: IZ
Aspergillus fumigatus [24] = assay: Antifungal activity against Aspergillus fumigatus after 48 hr by agar streak dilution method

Compound	MIC (Shigella flexneri [1]) [µg/mL]	MIC (Proteus vulgaris [2]) [µg/mL]	MIC (Salmonella typhi [3]) [µg/mL]	MIC (Klebsiella pneumoniae [4]) [µg/mL]	zone of inhibition at 100 µg/disc (Candida albicans [5]) [mm]	zone of inhibition at 100 µg/disc (Aspergillus clavatus [6]) [mm]	zone of inhibition at 100 µg/disc (Aspergillus fumigatus [7]) [mm]	zone of inhibition at 100 µg/disc (Aspergillus niger [8]) [mm]	MIC (Candida albicans [9]) [µg/mL]	MIC (Aspergillus clavatus [10]) [µg/mL]	MIC (Aspergillus niger [11]) [µg/mL]	MIC (Pseudomonas aeruginosa [12]) [µg/mL]	zone of inhibition at 100 µg/disc (Shigella flexneri [14]) [mm]	zone of inhibition at 100 µg/disc (Proteus vulgaris [15]) [mm]	zone of inhibition at 100 µg/disc (Salmonella typhi [16]) [mm]	zone of inhibition at 100 µg/disc (Klebsiella pneumoniae [17]) [mm]	zone of inhibition at 100 µg/disc (Pseudomonas aeruginosa [18]) [mm]	zone of inhibition at 100 µg/disc (Escherichia coli [19]) [mm]	MIC (Bacillus subtilis [20]) [µg/mL]	MIC (Staphylococcus aureus [21]) [µg/mL]	further results
Cc1cc(=O)oc2cc(Oc3nc(Nc4ccc(N5C(=O)CSC5c5cccc(F)c5)cc4)nc(N(C)C)n3)ccc12 (centres undefined)	25 (≈ 42.8 µM)	50 (≈ 85.5 µM)	25 (≈ 42.8 µM)	50 (≈ 85.5 µM)	18	21	17	20	50 (≈ 85.5 µM)	25 (≈ 42.8 µM)	25 (≈ 42.8 µM)	50 (≈ 85.5 µM)	22	17	20	18	19	23	50 (≈ 85.5 µM)	50 (≈ 85.5 µM)	MIC (Escherichia coli [13]): 25 µg/mL (≈ 42.8 µM); zone of inhibition at 100 µg/disc (Bacillus subtilis [22]): 19 mm; zone of inhibition at 100 µg/disc (Staphylococcus aureus [23]): 17 mm; MIC (Aspergillus fumigatus [24]): 50 µg/mL (≈ 85.5 µM)
Cc1cc(=O)oc2cc(Oc3nc(Nc4ccc(N5C(=O)C(CN6CCN(c7ccccn7)CC6)SC5c5ccc(Cl)cc5)cc4)nc(N(C)C)n3)ccc12 (centres undefined)	6.25 (≈ 8.05 µM)	12.5 (≈ 16.1 µM)	12.5 (≈ 16.1 µM)	25 (≈ 32.2 µM)	26	25	21	18	6.25 (≈ 8.05 µM)	12.5 (≈ 16.1 µM)	50 (≈ 64.4 µM)	50 (≈ 64.4 µM)	27	25	24	22	18	23	50 (≈ 64.4 µM)	25 (≈ 32.2 µM)	MIC (Escherichia coli [13]): 50 µg/mL (≈ 64.4 µM); zone of inhibition at 100 µg/disc (Bacillus subtilis [22]): 18 mm; zone of inhibition at 100 µg/disc (Staphylococcus aureus [23]): 21 mm; MIC (Aspergillus fumigatus [24]): 12.5 µg/mL (≈ 16.1 µM)
Cc1cc(=O)oc2cc(Oc3nc(Nc4ccc(N5C(=O)C(CN6CCN(c7ccccn7)CC6)SC5c5ccccc5C(=O)O)cc4)nc(N(C)C)n3)ccc12 (centres undefined)	100 (≈ 127 µM)	100 (≈ 127 µM)	100 (≈ 127 µM)	100 (≈ 127 µM)	< 10	15	13	15	100 (≈ 127 µM)	100 (≈ 127 µM)	100 (≈ 127 µM)	50 (≈ 63.6 µM)	17	15	11	15	18	13	50 (≈ 63.6 µM)	50 (≈ 63.6 µM)	MIC (Escherichia coli [13]): 100 µg/mL (≈ 127 µM); zone of inhibition at 100 µg/disc (Bacillus subtilis [22]): 17 mm; zone of inhibition at 100 µg/disc (Staphylococcus aureus [23]): 19 mm; MIC (Aspergillus fumigatus [24]): 100 µg/mL (≈ 127 µM)
Cc1cc(=O)oc2cc(Oc3nc(Nc4ccc(/N=C/c5ccc(F)cc5)cc4)nc(N(C)C)n3)ccc12	100 (≈ 196 µM)	50 (≈ 97.9 µM)	50 (≈ 97.9 µM)	100 (≈ 196 µM)	21	19	14	20	25 (≈ 49 µM)	50 (≈ 97.9 µM)	50 (≈ 97.9 µM)	50 (≈ 97.9 µM)	14	17	15	< 10	20	16	50 (≈ 97.9 µM)	25 (≈ 49 µM)	MIC (Escherichia coli [13]): 50 µg/mL (≈ 97.9 µM); zone of inhibition at 100 µg/disc (Bacillus subtilis [22]): 18 mm; zone of inhibition at 100 µg/disc (Staphylococcus aureus [23]): 20 mm; MIC (Aspergillus fumigatus [24]): 100 µg/mL (≈ 196 µM)
COc1ccc(C2SC(CN3CCN(c4ccccn4)CC3)C(=O)N2c2ccc(Nc3nc(Oc4ccc5c(C)cc(=O)oc5c4)nc(N(C)C)n3)cc2)cc1OC (centres undefined)	50 (≈ 62.3 µM)	100 (≈ 125 µM)	50 (≈ 62.3 µM)	100 (≈ 125 µM)	< 10	17	13	19	100 (≈ 125 µM)	50 (≈ 62.3 µM)	50 (≈ 62.3 µM)	100 (≈ 125 µM)	19	15	17	11	15	13	50 (≈ 62.3 µM)	25 (≈ 31.2 µM)	MIC (Escherichia coli [13]): 100 µg/mL (≈ 125 µM); zone of inhibition at 100 µg/disc (Bacillus subtilis [22]): 17 mm; zone of inhibition at 100 µg/disc (Staphylococcus aureus [23]): 20 mm; MIC (Aspergillus fumigatus [24]): 100 µg/mL (≈ 125 µM)
Cc1cc(=O)oc2cc(Oc3nc(Nc4ccc(N5C(=O)CSC5c5ccc(Cl)c(Cl)c5)cc4)nc(N(C)C)n3)ccc12 (centres undefined)	50 (≈ 78.7 µM)	100 (≈ 157 µM)	50 (≈ 78.7 µM)	100 (≈ 157 µM)	13	18	15	12	100 (≈ 157 µM)	50 (≈ 78.7 µM)	100 (≈ 157 µM)	50 (≈ 78.7 µM)	18	17	18	15	19	14	50 (≈ 78.7 µM)	100 (≈ 157 µM)	MIC (Escherichia coli [13]): 100 µg/mL (≈ 157 µM); zone of inhibition at 100 µg/disc (Bacillus subtilis [22]): 18 mm; zone of inhibition at 100 µg/disc (Staphylococcus aureus [23]): 16 mm; MIC (Aspergillus fumigatus [24]): 100 µg/mL (≈ 157 µM)
Cc1cc(=O)oc2cc(Oc3nc(Nc4ccc(N5C(=O)C(CN6CCN(c7ccccn7)CC6)SC5c5ccc(Cl)c(Cl)c5)cc4)nc(N(C)C)n3)ccc12 (centres undefined)	50 (≈ 61.7 µM)	25 (≈ 30.8 µM)	50 (≈ 61.7 µM)	50 (≈ 61.7 µM)	17	20	18	16	100 (≈ 123 µM)	50 (≈ 61.7 µM)	100 (≈ 123 µM)	25 (≈ 30.8 µM)	19	20	20	19	21	18	25 (≈ 30.8 µM)	50 (≈ 61.7 µM)	MIC (Escherichia coli [13]): 50 µg/mL (≈ 61.7 µM); zone of inhibition at 100 µg/disc (Bacillus subtilis [22]): 21 mm; zone of inhibition at 100 µg/disc (Staphylococcus aureus [23]): 19 mm; MIC (Aspergillus fumigatus [24]): 50 µg/mL (≈ 61.7 µM)
Cc1ccc(C2SC(CN3CCN(c4ccccn4)CC3)C(=O)N2c2ccc(Nc3nc(Oc4ccc5c(C)cc(=O)oc5c4)nc(N(C)C)n3)cc2)cc1 (centres undefined)	25 (≈ 33.1 µM)	50 (≈ 66.1 µM)	25 (≈ 33.1 µM)	50 (≈ 66.1 µM)	24	22	20	23	12.5 (≈ 16.5 µM)	25 (≈ 33.1 µM)	12.5 (≈ 16.5 µM)	50 (≈ 66.1 µM)	22	18	21	19	22	18	12.5 (≈ 16.5 µM)	25 (≈ 33.1 µM)	MIC (Escherichia coli [13]): 50 µg/mL (≈ 66.1 µM); zone of inhibition at 100 µg/disc (Bacillus subtilis [22]): 22 mm; zone of inhibition at 100 µg/disc (Staphylococcus aureus [23]): 20 mm; MIC (Aspergillus fumigatus [24]): 25 µg/mL (≈ 33.1 µM)
Cc1cc(=O)oc2cc(Oc3nc(Nc4ccc(N5C(=O)CSC5c5ccc([N+](=O)[O-])cc5)cc4)nc(N(C)C)n3)ccc12 (centres undefined)	100 (≈ 163 µM)	100 (≈ 163 µM)	100 (≈ 163 µM)	100 (≈ 163 µM)	< 10	17	13	12	100 (≈ 163 µM)	100 (≈ 163 µM)	100 (≈ 163 µM)	100 (≈ 163 µM)	11	< 10	16	12	11	13	100 (≈ 163 µM)	100 (≈ 163 µM)	MIC (Escherichia coli [13]): 100 µg/mL (≈ 163 µM); zone of inhibition at 100 µg/disc (Bacillus subtilis [22]): 11 mm; zone of inhibition at 100 µg/disc (Staphylococcus aureus [23]): 13 mm; MIC (Aspergillus fumigatus [24]): 100 µg/mL (≈ 163 µM)
O=C(O)c1cn(C2CC2)c2cc(N3CCNCC3)c(F)cc2c1=O [CIPROFLOXACIN]	≤ 3	1 (≈ 3.02 µM)	1 (≈ 3.02 µM)	1 (≈ 3.02 µM)	–	–	–	–	–	–	–	1 (≈ 3.02 µM)	32	31	30	33	33	32	1 (≈ 3.02 µM)	1 (≈ 3.02 µM)	zone of inhibition at 100 µg/disc (Bacillus subtilis [22]): 31 mm; zone of inhibition at 100 µg/disc (Staphylococcus aureus [23]): 30 mm
CC(=O)N1CCN(c2ccc(OCC3COC(Cn4ccnc4)(c4ccc(Cl)cc4Cl)O3)cc2)CC1 (centres undefined) [KETOCONAZOLE]	–	–	–	–	33	31	29	30	1 (≈ 1.88 µM)	1 (≈ 1.88 µM)	≤ 3	–	–	–	–	–	–	–	–	–	MIC (Aspergillus fumigatus [24]): 1 µg/mL (≈ 1.88 µM)
